Data published in patent US8304443B2, “Indazole derivatives” (Asahi Kasei Pharma Corporation, priority 2008, dated 2012).

How the values were obtained:
[1] = Test example 14: stability in phosphate buffer solution having pH 6.8; assay type: physicochemical; conditions: for HPLC area percentage at 24 hours after the filtration / HPLC area percentage at 48 hours after the filtration / HPLC area percentage right after the filtration: phosphate buffer solution pH 6.8; for stability in phosphate buffer solution pH 6.8 (finding): up to 48 hours
Description: (§1) Test compound is prepared to saturation state in pure water. The resulting solution is shaken at room temperature for 1 hour. To a filter tube, the entire solution obtained after the shaking is transferred and is subjected to centrifugal filtration at room temperature. The filtrate is analyzed by HPLC right after the filtration, 24 hours, and 48 hours after the filtration. Then, by using a calibration curve, stability of the test compound is obtained from the peak area value.
Except that pure water is replaced with phosphate buffer solution having pH 6.8, the test is carried out in the same method as Test example 13 to obtain the stability of the test compound.

[2] = Test example 13: stability test in pure water; assay type: physicochemical; conditions: for stability in pure water (finding): up to 48 hours
Description: as §1
Standard solution is prepared by precisely weighing each test compound and fully dissolving it in pure water. Calibration curve is established by having the concentration of the standard solution as a horizontal axis and the HPLC area value at the corresponding concentration as a vertical axis.
As a separation column, YMC-Pack C18 (4.6 mm×150 mm, manufactured by YMC) is used. Detection is made at UV-254 nm and the temperature inside the column is 40° C. Condition for elution is as follows; with flow rate of 1 ml/minute, solution A as a solvent=water [comprising 0.1% (v/v) acetic acid] and solution B=acetonitrile are used, and from minute 0 to minute 20, 5 to 98% (v/v) linear gradient of solution B is applied, followed by elution with 98% of solution B until minute 25 and elution with 5% of solution B from minute 25.01 to minute 35.

[3] = target: T1, human β2 adrenergic receptor (Homo sapiens, UniProt P07550); test: Test example 3-B: human β2 adrenergic receptor agonist activity; assay type: cell-based; conditions: read-out: β2 receptor I.A.
T1 construct: expressed in transfected cells; host or cells: CHO (Chinese hamster ovary) cells, pcDNA3

[4] = target: T2, human α1A adrenergic receptor (Homo sapiens, UniProt P35348); test: Test example 4: human α1A adrenergic receptor agonist activity (Ca flux, Fura-2); assay type: cell-based; conditions: for Emax: Table 4, Test example 4, maximum response to norephinephrine taken as 100%, read-out: α1A receptor I.A.
T2 construct: expressed in transfected cells; host or cells: HEK293 cells, pcDNA3.1(−), geneticin-selected
T2 sequence (P35348 1-466): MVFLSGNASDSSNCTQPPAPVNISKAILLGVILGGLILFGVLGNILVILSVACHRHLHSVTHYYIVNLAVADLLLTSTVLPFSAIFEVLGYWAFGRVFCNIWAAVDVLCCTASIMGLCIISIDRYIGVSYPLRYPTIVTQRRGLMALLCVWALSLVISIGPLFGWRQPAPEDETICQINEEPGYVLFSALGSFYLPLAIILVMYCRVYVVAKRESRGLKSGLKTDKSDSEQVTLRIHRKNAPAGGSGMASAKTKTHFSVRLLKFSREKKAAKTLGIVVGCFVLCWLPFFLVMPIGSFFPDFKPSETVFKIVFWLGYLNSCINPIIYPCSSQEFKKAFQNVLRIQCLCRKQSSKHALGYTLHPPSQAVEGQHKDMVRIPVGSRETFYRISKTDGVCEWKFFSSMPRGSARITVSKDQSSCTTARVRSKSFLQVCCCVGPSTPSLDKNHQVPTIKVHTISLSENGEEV
Description: Human α1A adrenergic receptor agonist activity is determined by using HEK293 cells transfected with pcDNA3.1(−) (Invitrogen) to which human α1A gene has been inserted. These cells are cultured in a DMEM medium containing 10% fetal bovine serum, 400 μg/mL geneticin (Gibco BRL), 100 U/ml penicillin and 100 μg/ml streptomycin. […] After carrying out the loading for 30 minutes in a CO2 incubator, excess Fura-2AM is removed by washing the cells twice with the assay buffer. The cells obtained after the centrifuge is prepared to 5×10^6 cells/ml by using the assay buffer, and aliquoted into a 96-well UV plate (manufactured by Corning Inc.) to give a cell plate (80 μl/well). […] After the measurement for about 30 seconds, 20 μl of the test sample from the sample plate is added to the cell plate and the measurement is continued for another 270 seconds. Ca flux caused by the test compound is obtained from the peak height difference between the maximum value of fluorescence intensity ratio at 340 nm and 380 nm after the addition of the test compound and the fluorescence intensity ratio before the addition of the test compound. Maximum response to norephinephrine as a positive control is taken as 100%, and the maximum response ratio of each test compound is obtained as Intrinsic Activity [I.A. (%)].

[5] = target: T3, human β1 adrenergic receptor (Homo sapiens, UniProt P08588); test: Test example 2-B: human β1 adrenergic receptor agonist activity; assay type: cell-based; conditions: 0.5 h; read-out: β1 receptor I.A.
T3 construct: expressed in transfected cells; host or cells: CHO (Chinese hamster ovary) cells, pcDNA3
T3 sequence (P08588 whole entry): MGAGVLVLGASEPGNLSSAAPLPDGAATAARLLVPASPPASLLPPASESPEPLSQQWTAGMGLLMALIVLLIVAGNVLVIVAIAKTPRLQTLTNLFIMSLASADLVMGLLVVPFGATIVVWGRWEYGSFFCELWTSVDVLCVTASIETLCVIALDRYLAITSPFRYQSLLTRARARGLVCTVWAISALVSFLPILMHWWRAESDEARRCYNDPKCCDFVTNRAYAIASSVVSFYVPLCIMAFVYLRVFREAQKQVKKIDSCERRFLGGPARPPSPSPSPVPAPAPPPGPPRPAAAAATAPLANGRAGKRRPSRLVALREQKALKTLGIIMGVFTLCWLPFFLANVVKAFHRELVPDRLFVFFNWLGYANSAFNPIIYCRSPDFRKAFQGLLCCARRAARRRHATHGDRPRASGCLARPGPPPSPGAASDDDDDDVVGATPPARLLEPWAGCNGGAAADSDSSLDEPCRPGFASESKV

T1 sequence (P07550 whole entry): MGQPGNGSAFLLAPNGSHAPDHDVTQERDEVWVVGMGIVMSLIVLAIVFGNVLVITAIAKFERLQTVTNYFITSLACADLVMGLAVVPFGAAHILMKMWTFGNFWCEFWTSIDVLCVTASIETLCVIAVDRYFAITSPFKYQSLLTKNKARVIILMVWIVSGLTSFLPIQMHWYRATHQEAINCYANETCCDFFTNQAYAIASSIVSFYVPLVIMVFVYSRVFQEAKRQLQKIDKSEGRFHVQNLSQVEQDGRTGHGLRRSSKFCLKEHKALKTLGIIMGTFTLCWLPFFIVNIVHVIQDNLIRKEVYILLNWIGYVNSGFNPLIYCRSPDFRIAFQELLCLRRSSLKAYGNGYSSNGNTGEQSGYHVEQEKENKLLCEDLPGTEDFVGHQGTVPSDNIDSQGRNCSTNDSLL

SMILES	HPLC area percentage at 24 hours after the filtration [1] [%]	HPLC area percentage at 48 hours after the filtration [1] [%]	HPLC area percentage right after the filtration [1] [%]	stability in phosphate buffer solution pH 6.8 (finding) [1]	HPLC area percentage at 24 hours after the filtration [2] [%]	HPLC area percentage at 48 hours after the filtration [2] [%]	HPLC area percentage right after the filtration [2] [%]	stability in pure water (finding) [2]	Emax [3] [%]	Emax [4] [%]	Emax [5] [%]	EC50 [4] [µM]
CS(=O)(=O)Nc1cccc([C@@H](O)CNCCOc2ccc3c(C4CCC4)n[nH]c3c2)c1 [Example 2, (R)—N-(3-(1-Hydroxy-2-(2-(3-cyclobutylindazol-6-yloxy)ethylamino)ethyl)phenyl)methanesulfonamide]	93.3	94.5	95.1	stable	95.2	95.0	95.2	stable	3.8	10	9.9	
CS(=O)(=O)Nc1cccc([C@@H](O)CNCCOc2ccc3c(C4CC4)n[nH]c3c2)c1 [Example 1, (R)—N-(3-(1-Hydroxy-2-(2-(3-cyclopropylindazol-6-yloxy)ethylamino)ethyl)phenyl)methanesulfonamide]	95.5	95.5	95.7	stable	95.6	95.6	95.7	stable	6.3	20	10	1.67
